The values below come from patent US20260022143A1, “Cyclic Peptide Inhibitors of IL-23” (JANSSEN PHARMACEUTICA NV, priority 2022, published 2026).

SMILES strings stand for the structures. Starred links: 1 amine or outer side, 2 acyl side, 3 side chain; linkers in the order of their positions; H or OH if unused. Positions of bridges follow the written chain, without caps; N, C: chain ends. Non-standard residues stand in square brackets, D forms with d. Residues, ends and D or L forms follow the SMILES beside them. Groups on a side chain read outwards from the residue. *: point of attachment. X51 = C[N+](C)(C)CCCc1cn(-c2ccc(C[C@H](N[*:1])C(=O)[*:2])cc2)nn1; X27 = C[N+](C)(C)CCc1cn(-c2ccc(C[C@H](N[*:1])C(=O)[*:2])cc2)nn1; Me3N+(CH2)2O(CH2)2O(CH2)2CO = C[N+](C)(C)CCOCCOCCC(=O)*; Trp(7-Me) = Cc1cccc2c(C[C@H](N)C(=O)O)c[nH]c12; d(hLys(Me3)) = C[N+](C)(C)CCCCC[C@@H](N)C(=O)O; Dab(NMeAc) = CC(=O)N(C)CC[C@H](N)C(=O)O; γGlu = O=C(O)[C@H](CCC(=O)[*:2])N[*:1]; 2Nal = N[C@@H](Cc1ccc2ccccc2c1)C(=O)O; AEF = NCCOc1ccc(C[C@H](N)C(=O)O)cc1; dNMeY = CN[C@H](Cc1ccc(O)cc1)C(=O)O; 3Pal = N[C@@H](Cc1cccnc1)C(=O)O; Myristoyl = CCCCCCCCCCCCCC(=O)*; Lys(Me) = CNCCCC[C@H](N)C(=O)O; Pen = CC(C)(S)[C@H](N)C(=O)O; Lauroyl = CCCCCCCCCCCC(=O)*; Thp = NC1(C(=O)O)CCOCC1; X3 = C[N+](C)(C)CCCCC*; AEEA = NCCOCCOCC(=O)O; Sar = CNCC(=O)O

The nature of data set [1]: Exposed Polar Surface Area (EPSA). It is filed as physicochemical. As to conditions: SFC on Chirex 3014 column; sample 1 mM DMSO stock; read-out: EPSA. In a few lines: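 EPSA, in Å^2, is read from SFC retention time through a linear relationship established with eight calibration standards. Separation uses a Chirex 3014 stationary phase, 35 °C, 14 MPa back pressure, and a 5–60% methanol/ammonium formate modifier gradient in CO2.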

The next data set deals with T1, IL-23R (Homo sapiens, UniProt Q5VWK5).
T1 construct: host or cells: HEK293
T1 sequence (Q5VWK5 24-629): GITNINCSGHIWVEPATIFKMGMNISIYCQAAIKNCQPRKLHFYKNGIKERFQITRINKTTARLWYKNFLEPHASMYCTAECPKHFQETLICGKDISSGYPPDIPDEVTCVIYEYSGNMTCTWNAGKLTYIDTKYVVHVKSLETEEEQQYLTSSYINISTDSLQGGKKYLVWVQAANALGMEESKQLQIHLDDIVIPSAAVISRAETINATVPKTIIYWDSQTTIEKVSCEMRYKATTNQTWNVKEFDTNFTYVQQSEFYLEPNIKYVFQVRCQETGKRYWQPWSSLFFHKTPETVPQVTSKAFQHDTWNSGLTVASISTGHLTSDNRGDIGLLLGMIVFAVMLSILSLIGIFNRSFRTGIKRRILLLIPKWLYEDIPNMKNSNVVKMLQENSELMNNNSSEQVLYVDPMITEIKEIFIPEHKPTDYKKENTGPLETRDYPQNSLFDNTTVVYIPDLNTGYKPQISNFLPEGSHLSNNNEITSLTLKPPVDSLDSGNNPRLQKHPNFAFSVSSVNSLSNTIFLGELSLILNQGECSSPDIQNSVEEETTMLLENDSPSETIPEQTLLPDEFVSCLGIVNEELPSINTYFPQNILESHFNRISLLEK
The data set is described as follows: IL23R Reporter Assay. It is filed as cell-based. The conditions noted are these: HEK293 cells containing IL-23R, IL-12RP1 and STAT-inducible firefly luciferase reporter; 10 ng/mL IL-23 (EC90); 5 h at 37° C.; read-out: IL23R Reporter Assay.

Consider `CC(=O)NCCCC[C@@H]1NC(=O)[C@H](Cc2c[nH]c3c(C)cccc23)NC(=O)[C@H]([C@@H](C)O)NC(=O)[C@H](CC(N)=O)NC(=O)[C@@H](NC(=O)C(COCCOCC[N+](C)(C)C)NC(C)=O)C(C)(C)SSC(C)(C)[C@@H](C(=O)N[C@@H](Cc2ccc(OCCN)cc2)C(=O)N[C@@H](Cc2ccc3ccccc3c2)C(=O)NC2(C(=O)N[C@@H](CCC(=O)O)C(=O)N[C@@H](CC(N)=O)C(=O)N[C@@H](Cc3cccnc3)C(=O)N(C)CC(N)=O)CCOCC2)NC1=O` (mixture of isomers) [compound 553, MeCO-APEG2Ser(RS)-Pen(3)-N-T-7MeW-K(Ac)-Pen(3)-AEF-2Nal-THP-E-N-3Pya-Sar-CONH2], for which, in data set [1], the EPSA turned out to be 185 A^2. For the same compound, the IC50 on IL-23R came out at 4.5 nM.

For the compound `CC(=O)NCCCC[C@@H]1NC(=O)[C@H](Cc2c[nH]c3c(C)cccc23)NC(=O)[C@H]([C@@H](C)O)NC(=O)[C@H](CC(N)=O)NC(=O)[C@@H](NC(=O)[C@@H](CCCNC(=N)N)NC(C)=O)C(C)(C)SSC(C)(C)[C@@H](C(=O)N[C@@H](Cc2ccc(OCCN)cc2)C(=O)N[C@@H](Cc2ccc3ccccc3c2)C(=O)NC2(C(=O)N[C@@H](CCC(=O)O)C(=O)N[C@@H](CC(N)=O)C(=O)N[C@@H](Cc3cccnc3)C(=O)N(C)[C@H](Cc3ccc(O)cc3)C(N)=O)CCOCC2)NC1=O` [compound 35, MeCO-r-Pen(3)-N-T-7MeW-K(Ac)-Pen(3)-AEF-2Nal-THp-E-N-3Pya-NMeDTyr-CONH2] (Ac-[dR][Pen]NT[Trp(7-Me)]K(Ac)[Pen][AEF][2Nal][Thp]EN[3Pal][dNMeY]-NH2; disulfide 2-7), the EPSA in data set [1] came out at 184 A^2. Moreover, on IL-23R, the IC50 turned out to be 3.4 nM.

For the compound `CNC(=O)C[C@@H]1NC(=O)[C@@H](NC(C)=O)C(C)(C)SSC(C)(C)[C@@H](C(=O)N[C@@H](Cc2ccc(OCCN)cc2)C(=O)N[C@@H](Cc2ccc3ccccc3c2)C(=O)NC2(C(=O)N[C@@H](CCCCNC(C)=O)C(=O)N[C@@H](CC(N)=O)C(=O)N[C@@H](Cc3cccnc3)C(=O)N(C)CC(N)=O)CCOCC2)NC(=O)[C@H](CCCCNC(C)=O)NC(=O)[C@H](Cc2c[nH]c3c(C)cccc23)NC(=O)[C@H]([C@@H](C)O)NC1=O` [compound 46] (Ac-[Pen]D(NHMe)T[Trp(7-Me)]K(Ac)[Pen][AEF][2Nal][Thp]K(Ac)N[3Pal][Sar]-NH2; disulfide 1-6 (inferred)), the EPSA in data set [1] is 162 A^2. Moreover, the IC50 on IL-23R was 3.2 nM.

Take `CCCCCCCCCCCC(=O)N[C@@H](CCC(=O)NCCOCCOCC(=O)NCCOCCOCC(=O)NCCCC[C@@H]1NC(=O)[C@H](Cc2c[nH]c3c(C)cccc23)NC(=O)[C@H]([C@@H](C)O)NC(=O)[C@H](CCCCNC(=O)COCCOCCNC(=O)COCCOCCNC(=O)CC[C@H](NC(=O)CCCCCCCCCCC)C(=O)O)NC(=O)[C@@H](NC(=O)CCOCCOCC[N+](C)(C)C)C(C)(C)SSC(C)(C)[C@@H](C(=O)N[C@@H](Cc2ccc(OCCCCC[N+](C)(C)C)cc2)C(=O)N[C@@H](Cc2ccc3ccccc3c2)C(=O)NC2(C(=O)N[C@@H](CCCCN(C)C(C)=O)C(=O)N[C@@H](CC(N)=O)C(=O)N[C@@H](Cc3cccnc3)C(=O)N(C)CC(=O)N(C)C)CCOCC2)NC1=O)C(=O)O` [compound 389, cPEG3aCO-Pen(3)-K(PEG2PEG2gEC12)-T-7MeW-K(PEG2PEG2gEC12)-Pen(3)-TMAPF-2Nal-THP-K(NMeAc)-N-3Pya-Sar-CON(Me)2] ({Me3N+(CH2)2O(CH2)2O(CH2)2CO}-[Pen]K([AEEA-AEEA-γGlu-Lauroyl])T[Trp(7-Me)]K([AEEA-AEEA-γGlu-Lauroyl])[Pen]Y(X3)[2Nal][Thp][Lys(Me)](Ac)N[3Pal][Sar]-NMe2; disulfide 1-6): the EPSA in data set [1] is 185 A^2. Further, the IC50 at IL-23R is 390 nM.

With `CC(=O)NCCCC[C@@H]1NC(=O)[C@H](Cc2c[nH]c3c(C)cccc23)NC(=O)[C@H]([C@@H](C)O)NC(=O)[C@H](CC(N)=O)NC(=O)[C@@H](NC(C)=O)C(C)(C)SSC(C)(C)[C@@H](C(=O)N[C@@H](Cc2ccc(-n3cc(CCC[N+](C)(C)C)nn3)cc2)C(=O)N[C@@H](Cc2ccc3ccccc3c2)C(=O)NC2(C(=O)N[C@@H](CCC(=O)O)C(=O)N[C@@H](CC(N)=O)C(=O)N[C@@H](Cc3cccnc3)C(=O)N(C)CC(N)=O)CCOCC2)NC1=O` [compound 458] (Ac-[Pen]NT[Trp(7-Me)]K(Ac)[Pen][X51][2Nal][Thp]EN[3Pal][Sar]-NH2; disulfide 1-6 (inferred)), the EPSA in data set [1] was determined as 172 A^2. Besides, the IC50 at IL-23R worked out at 2.6 nM.

Turning to `CCCCCCCCCCCCCC(=O)N[C@@H](CCC(=O)NCCOCCOCC(=O)NCCOCCOCC(=O)NCCCC[C@H](NC(=O)[C@H](Cc1ccc2ccccc2c1)NC(=O)[C@H](Cc1ccc(OCCCCC[N+](C)(C)C)cc1)NC(=O)[C@H]1NC(=O)[C@H](CCCCN(C)C(C)=O)NC(=O)[C@H](Cc2c[nH]c3c(C)cccc23)NC(=O)[C@H]([C@@H](C)O)NC(=O)[C@H](CC(=O)N(C)C)NC(=O)[C@@H](NC(=O)[C@@H](CCCCC[N+](C)(C)C)NC(=O)COCCOCCNC(=O)COCCOCCNC(=O)CC[C@H](NC(=O)CCCCCCCCCCCCC)C(=O)O)C(C)(C)SSC1(C)C)C(=O)N[C@@H](CC(N)=O)C(=O)N[C@@H](Cc1cccnc1)C(=O)N(C)CC(=O)N(C)C)C(=O)O` [compound 570, C14gEPEG2PEG2CO-hk(Me)3-Pen(3)-N(N(Me)2)-T-7MeW-K(NMeAc)-Pen(3)-TMAPF-2Nal-K(PEG2PEG2gEC14)-N-3Pya-Sar-CON(Me)2] ({Myristoyl-γGlu-AEEA-AEEA}-[d(hLys(Me3))][Pen]D(NMe2)T[Trp(7-Me)][Lys(Me)](Ac)[Pen]Y(X3)[2Nal]K([AEEA-AEEA-γGlu-Myristoyl])N[3Pal][Sar]-NMe2; disulfide 2-7), in data set [1], the EPSA amounted to 154 A^2. Further, the IC50 at IL-23R was determined as 29 nM.

As for `CC(=O)N(C)CCCC[C@@H]1NC(=O)[C@H](Cc2c[nH]c3c(C)cccc23)NC(=O)[C@H]([C@@H](C)O)NC(=O)[C@H](CC(=O)N(C)C)NC(=O)[C@@H](NC(=O)CCOCCOCC[N+](C)(C)C)C(C)(C)SSC(C)(C)[C@@H](C(=O)N[C@@H](Cc2ccc(-n3cc(CC[N+](C)(C)C)nn3)cc2)C(=O)N[C@@H](Cc2ccc3ccccc3c2)C(=O)NC2(C(=O)N[C@@H](CCCCN(C)C(C)=O)C(=O)N[C@@H](CC(N)=O)C(=O)N[C@@H](Cc3cccnc3)C(=O)N(C)CC(=O)N(C)C)CCOCC2)NC1=O` [compound 333, cPEG3aCO-Pen(3)-N(N(Me)2)-T-7MeW-K(NMeAc)-Pen(3)-F(4TzlTMA2)-2Nal-THP-K(NMeAc)-N-3Pya-Sar-CON(Me)2] ({Me3N+(CH2)2O(CH2)2O(CH2)2CO}-[Pen]D(NMe2)T[Trp(7-Me)][Lys(Me)](Ac)[Pen][X27][2Nal][Thp][Lys(Me)](Ac)N[3Pal][Sar]-NMe2; disulfide 1-6), the EPSA in data set [1] came out at 159 A^2. The IC50 at IL-23R turned out to be 1.8 nM.

Consider `CC(=O)N(C)CCCC[C@@H]1NC(=O)[C@H](Cc2c[nH]c3c(C)cccc23)NC(=O)[C@H]([C@@H](C)O)NC(=O)[C@H](CC(=O)N(C)C)NC(=O)[C@@H](NC(=O)CCOCCOCC[N+](C)(C)C)C(C)(C)SSC(C)(C)[C@@H](C(=O)N[C@@H](Cc2ccc(OCCCCC[N+](C)(C)C)cc2)C(=O)N[C@@H](Cc2ccc3ccccc3c2)C(=O)NC2(C(=O)N[C@@H](CCN(C)C(C)=O)C(=O)N[C@@H](CC(N)=O)C(=O)N[C@@H](Cc3cccnc3)C(=O)N(C)CC(=O)N(C)C)CCOCC2)NC1=O` [compound 301, cPEG3aCO-Pen(3)-N(N(Me)2)-T-7MeW-K(NMeAC)-Pen(3)-TMAPF-2Nal-THP-Dab(NMeAc)-N-3Pya-Sar-CON(Me)2] ({Me3N+(CH2)2O(CH2)2O(CH2)2CO}-[Pen]D(NMe2)T[Trp(7-Me)][Lys(Me)](Ac)[Pen]Y(X3)[2Nal][Thp][Dab(NMeAc)]N[3Pal][Sar]-NMe2; disulfide 1-6), for which, in data set [1], the EPSA came out at 153 A^2. Also, the IC50 at IL-23R worked out at 0.73 nM.
